Experimental data taken from patent US10117950B2, “Compounds and compositions for the treatment of ocular disorders” (Graybug Vision, Inc., priority 2015, dated 2018).
Read-outs that look alike come from different tables or passages of the source.

What was measured:
[1] = In vitro stability of bifunctional conjugates (HPLC, 254 nm); format: physicochemical; conditions: PBS pH 7.0, 20% DMSO; for degradation kinetics: one day
Method: Briefly, brinzolamide-PLA (n=4)-succinate-5-hydroxy-sunitinib (60-1) or dorzolamide-PLA (n=4)-succinate-5-hydroxy-sunitinib (58-5) was first dissolved in a solution of PBS (pH 7.0) with 20% DMSO (v/v) and incubated at 37° C. or 60° C. for 14 days.

[2] = biological target: T1, bovine erythrocyte carbonic anhydrase II (Bos taurus, UniProt P00921); experiment: Carbonic anhydrase II inhibition, colorimetric 4-nitrophenyl acetate hydrolysis; format: biochemical
T1 construct: purified bovine erythrocyte carbonic anhydrase II; from tissue; host or cells: bovine erythrocytes
T1 sequence (P00921 whole entry): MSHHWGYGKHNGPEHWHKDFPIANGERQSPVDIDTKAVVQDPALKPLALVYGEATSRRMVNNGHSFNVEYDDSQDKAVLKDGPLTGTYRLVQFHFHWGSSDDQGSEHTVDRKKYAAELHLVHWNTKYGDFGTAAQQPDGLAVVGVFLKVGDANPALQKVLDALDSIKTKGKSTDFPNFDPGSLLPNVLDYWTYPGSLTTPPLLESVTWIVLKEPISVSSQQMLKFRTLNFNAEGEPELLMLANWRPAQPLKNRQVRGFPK
Method: The catalytic activity of carbonic anhydrase II was assessed by a colorimetric method, in which 4-nitrophenyl acetate is hydrolyzed to acetate and nitrophenolate. The nitrophenolate ionizes to generate a bright yellow anion that is readily detected by measuring its absorbance at 350-400 nm. […] Acetazolamide was added as a positive control and 100% DMSO was added as a negative control. The reaction was initiated with the addition of 20 μL of 4-nitrophenyl acetate (0.7 mM in ethanol).

[3] = Determination of drug solubility; format: physicochemical; conditions: for solubility: thermodynamic from solid
Method: For each test, approximately 5-10 mg was transferred to a 10 mL glass vial. Aqueous or organic solvent was added to each vial to achieve an overall concentration of 50 mg/mL. After vortexing aggressively for 2-3 minutes and sonicating in a bath sonicator for 5 minutes, undissolved drug was spun down at 1200 rpm for 5 minutes to generate a pellet. The supernatant was collected and filtered through a 0.2 μm nylon syringe filter into HPLC vials for drug content analysis. Drug concentration was determined by comparing against a standard calibration curve.

[4] = In vitro stability of latanoprost NCEs (RP-HPLC); format: physicochemical; conditions: PBS pH 7.0, 20% DMSO, 37° C., 14 days
Method: Latanoprost and latanoprost-PLA conjugates were solubilized with the addition of 20% (v/v) DMSO and subsequently suspended to a concentration of 1 mg/mL in PBS (pH 7.0).

[5] = DMSO, organic solvent or mixture, read-out: Solubility DMSO
[6] = water / aqueous solvent, read-out: Solubility Water

| Compound | degradation kinetics [1] | carbonic anhydrase inhibitory activity [2] | IC50 ([2]; n = 2) [nM] | solubility [3, 5] [mg/mL] | solubility [3, 6] [mg/mL] | PLA (n=4) signal ([1]; after one day of incubation) [%] | PLA (n=4) signal ([1]; before incubation) [%] | in vitro stability [4] | solubility ([3]; DCM, organic solvent or mixture, read-out: Solubility DCM) [mg/mL] | solubility ([3]; organic solvent (not named), organic solvent or mixture, organic solvent, read-out: organic solubility) [mg/mL] | Solubility Water ([3]; water / aqueous solvent) |
| --- | --- | --- | --- | --- | --- | --- | --- | --- | --- | --- | --- |
| CCN[C@H]1C[C@H](C)S(=O)(=O)c2sc(S(=O)(=O)NC(=O)[C@H](C)OC(=O)[C@H](C)OC(=O)[C@H](C)OC(=O)[C@H](C)OC(=O)CCC(=O)Oc3ccc4c(c3)/C(=C/c3[nH]c(C)c(C(=O)NCCN(CC)CC)c3C)C(=O)N4)cc21 [58-5, dorzolamide-PLA(n=4)-succinate-5-hydroxy-Sunitinib] | rapidly decreasing after one day | lowest inhibitory activity | 222 ± 36.3 | > 50 | < 1 | – | – | – | – | – | – |
| CCN[C@H]1CN(CCCOC)S(=O)(=O)c2sc(S(=O)(=O)NC(=O)[C@H](C)OC(=O)[C@H](C)OC(=O)[C@H](C)OC(=O)[C@H](C)OC(=O)CCC(=O)Oc3ccc4c(c3)/C(=C/c3[nH]c(C)c(C(=O)NCCN(CC)CC)c3C)C(=O)N4)cc21 [60-1, brinzolamide-PLA(n=4)-succinate-5-hydroxy-Sunitinib] | rapidly hydrolyzed | – | – | > 50 | < 1 | 15.7 | 83 | – | – | – | – |
| CC(C)OC(=O)CCC/C=C\C[C@@H]1[C@@H](CC[C@@H](O)CCc2ccccc2)[C@H](O)C[C@@H]1O [Latanoprost, latanoprost, reference compound] | – | – | – | > 50 | < 1 | – | – | good stability | > 50 | > 50 | very low aqueous solubility |
